# Laboratory results taken from ChEMBL document CHEMBL1201862, “PubChem BioAssay data set” (2004).
#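 96-well plates; 48 h exposure; 5 concentrations. Endpoints by linear interpolation between flanking doses. Not reached: highest tested concentration assigned. At the GI50, growth is halved.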 Calls of active or inactive are those of the source. No stated cut-off is given here; in the data, active = GI50 up to about 1.1 µM and inactive = higher.
# Legend:
# Test in all cases: NCI-60 cell line screen, 48 h
# 786-0 = tested on: 786-0
# A498 = tested on: A498
# A549 = tested on: A549
# ACHN = tested on: ACHN
# BT-549 = tested on: BT-549
# CAKI-1 = tested on: CAKI-1
# CCRF-CEM = tested on: CCRF-CEM
# COLO 205 = tested on: COLO 205
# DU-145 = tested on: DU-145
# EKVX = tested on: EKVX
# HCC 2998 = tested on: HCC 2998
# HCT-116 = tested on: HCT-116
# HCT-15 = tested on: HCT-15
# HL-60 = tested on: HL-60
# HOP-62 = tested on: HOP-62
# HOP-92 = tested on: HOP-92
# HT-29 = tested on: HT-29
# Hs-578T = tested on: Hs-578T
# IGROV-1 = tested on: IGROV-1
# K562 = tested on: K562
# KM12 = tested on: KM12
# LOX IMVI = tested on: LOX IMVI
# M14 = tested on: M14
# MCF7 = tested on: MCF7
# MDA-MB-231 = tested on: MDA-MB-231
# MDA-MB-435 = tested on: MDA-MB-435
# MDA-N = tested on: MDA-N
# MOLT-4 = tested on: MOLT-4
# Malme-3M = tested on: Malme-3M
# NCI-H226 = tested on: NCI-H226
# NCI-H23 = tested on: NCI-H23
# NCI-H460 = tested on: NCI-H460
# NCI-H522 = tested on: NCI-H522
# NCI/ADR-RES = tested on: NCI/ADR-RES
# OVCAR-3 = tested on: OVCAR-3
# OVCAR-4 = tested on: OVCAR-4
# OVCAR-5 = tested on: OVCAR-5
# OVCAR-8 = tested on: OVCAR-8
# PC-3 = tested on: PC-3
# RPMI-8226 = tested on: RPMI-8226
# RXF 393 = tested on: RXF 393
# SF-268 = tested on: SF-268
# SF-295 = tested on: SF-295
# SF-539 = tested on: SF-539
# SK-MEL-28 = tested on: SK-MEL-28
# SK-MEL-2 = tested on: SK-MEL-2
# SK-MEL-5 = tested on: SK-MEL-5
# SK-OV-3 = tested on: SK-OV-3
# SN12C = tested on: SN12C
# SNB-19 = tested on: SNB-19
# SNB-75 = tested on: SNB-75
# SR = tested on: SR
# SW-620 = tested on: SW-620
# T47D = tested on: T47D
# TK-10 = tested on: TK-10
# U-251 = tested on: U-251
# UACC-257 = tested on: UACC-257
# UACC-62 = tested on: UACC-62
# UO-31 = tested on: UO-31
smiles,measurement,setting,value
COC1(OC)C=CC(=O)C=C1,GI50,786-0,1.9 µM (inactive)
same,GI50,A498,32.6 µM (inactive)
same,GI50,A549,5.85 µM (inactive)
same,GI50,ACHN,2.54 µM (inactive)
same,GI50,BT-549,3.55 µM (inactive)
same,GI50,CAKI-1,3.61 µM (inactive)
same,GI50,CCRF-CEM,0.446 µM (active)
same,GI50,COLO 205,7.69 µM (inactive)
same,GI50,DU-145,3.48 µM (inactive)
same,GI50,EKVX,6.78 µM (inactive)
same,GI50,HCC 2998,3.68 µM (inactive)
same,GI50,HCT-116,1.3 µM (inactive)
same,GI50,HCT-15,4.17 µM
same,GI50,HL-60,3.15 µM (inactive)
same,GI50,HOP-62,10.6 µM (inactive)
same,GI50,HOP-92,4.43 µM (inactive)
same,GI50,HT-29,3.11 µM (inactive)
same,GI50,Hs-578T,9.84 µM (inactive)
same,GI50,IGROV-1,1.72 µM (inactive)
same,GI50,K562,2.2 µM (inactive)
same,GI50,KM12,7.52 µM (inactive)
same,GI50,LOX IMVI,0.667 µM (active)
same,GI50,M14,3.3 µM (inactive)
same,GI50,MCF7,1.3 µM (inactive)
same,GI50,MDA-MB-231,2.9 µM (inactive)
same,GI50,MDA-MB-435,3.31 µM (inactive)
same,GI50,MDA-N,7.41 µM (inactive)
same,GI50,MOLT-4,2.33 µM (inactive)
same,GI50,Malme-3M,< 0.01 µM (active)
same,GI50,NCI-H226,2.61 µM (inactive)
same,GI50,NCI-H23,2.66 µM (inactive)
same,GI50,NCI-H460,6.61 µM (inactive)
same,GI50,NCI-H522,0.149 µM (active)
same,GI50,NCI/ADR-RES,4.2 µM (inactive)
same,GI50,OVCAR-3,4.2 µM (inactive)
same,GI50,OVCAR-4,3.05 µM (inactive)
same,GI50,OVCAR-5,10.4 µM (inactive)
same,GI50,OVCAR-8,1.83 µM (inactive)
same,GI50,PC-3,3.27 µM (inactive)
same,GI50,RPMI-8226,2.74 µM (inactive)
same,GI50,RXF 393,0.701 µM (active)
same,GI50,SF-268,4.09 µM (inactive)
same,GI50,SF-295,11 µM (inactive)
same,GI50,SF-539,1.74 µM (inactive)
same,GI50,SK-MEL-28,1.85 µM (inactive)
same,GI50,SK-MEL-2,6.81 µM (inactive)
same,GI50,SK-MEL-5,2.8 µM (inactive)
same,GI50,SK-OV-3,13 µM (inactive)
same,GI50,SN12C,7.48 µM (inactive)
same,GI50,SNB-19,15.7 µM (inactive)
same,GI50,SNB-75,11 µM (inactive)
same,GI50,SR,0.843 µM (active)
same,GI50,SW-620,1.45 µM (inactive)
same,GI50,T47D,3.22 µM (inactive)
same,GI50,TK-10,2.69 µM (inactive)
same,GI50,U-251,1.78 µM (inactive)
same,GI50,UACC-257,2.4 µM (inactive)
same,GI50,UACC-62,1.82 µM (inactive)
same,GI50,UO-31,1.89 µM (inactive)
C/C=C/[C@@H]1O[C@H](CC#C[Si](C)(C)C)[C@@]2(C=O)C(C)=CC[C@H](C(C)C)[C@@H]12,GI50,786-0,13.7 µM (inactive)
same,GI50,A498,29.6 µM (inactive)
same,GI50,A549,23.1 µM (inactive)
same,GI50,ACHN,19.2 µM (inactive)
same,GI50,BT-549,22.4 µM (inactive)
same,GI50,CAKI-1,1.94 µM (inactive)
same,GI50,CCRF-CEM,2.41 µM (inactive)
same,GI50,COLO 205,21.5 µM (inactive)
same,GI50,DU-145,21.3 µM (inactive)
same,GI50,EKVX,18.8 µM (inactive)
same,GI50,HCC 2998,18.2 µM (inactive)
same,GI50,HCT-116,18.2 µM (inactive)
same,GI50,HCT-15,21.1 µM
same,GI50,HL-60,3.81 µM (inactive)
same,GI50,HOP-62,25.4 µM (inactive)
same,GI50,HOP-92,17.4 µM (inactive)
same,GI50,HT-29,19.5 µM (inactive)
same,GI50,Hs-578T,33.3 µM (inactive)
same,GI50,IGROV-1,2.82 µM (inactive)
same,GI50,K562,14.7 µM (inactive)
same,GI50,KM12,17.7 µM (inactive)
same,GI50,LOX IMVI,4.5 µM (inactive)
same,GI50,M14,18.5 µM (inactive)
same,GI50,MCF7,22.5 µM (inactive)
same,GI50,MDA-MB-231,17.3 µM (inactive)
same,GI50,MDA-MB-435,20 µM (inactive)
same,GI50,MDA-N,19.4 µM (inactive)
same,GI50,MOLT-4,1.93 µM (inactive)
same,GI50,Malme-3M,19 µM (inactive)
same,GI50,NCI-H226,20.3 µM (inactive)
same,GI50,NCI-H23,22.2 µM (inactive)
same,GI50,NCI-H460,17.1 µM (inactive)
same,GI50,NCI-H522,2.09 µM (inactive)
same,GI50,NCI/ADR-RES,23.3 µM (inactive)
same,GI50,OVCAR-3,18.6 µM (inactive)
same,GI50,OVCAR-4,19.3 µM (inactive)
same,GI50,OVCAR-5,21 µM (inactive)
same,GI50,OVCAR-8,23.4 µM (inactive)
same,GI50,PC-3,15.4 µM (inactive)
same,GI50,RPMI-8226,5.7 µM (inactive)
same,GI50,RXF 393,18 µM (inactive)
same,GI50,SF-268,23.8 µM (inactive)
same,GI50,SF-295,21.9 µM (inactive)
same,GI50,SF-539,21.6 µM (inactive)
same,GI50,SK-MEL-28,20.3 µM (inactive)
same,GI50,SK-MEL-2,16.5 µM (inactive)
same,GI50,SK-MEL-5,17.6 µM (inactive)
same,GI50,SK-OV-3,80.4 µM (inactive)
same,GI50,SN12C,17.7 µM (inactive)
same,GI50,SNB-19,23.8 µM (inactive)
same,GI50,SNB-75,21.6 µM (inactive)
same,GI50,SR,2.44 µM (inactive)
same,GI50,SW-620,23.2 µM (inactive)
same,GI50,T47D,30.8 µM (inactive)
same,GI50,TK-10,15 µM (inactive)
same,GI50,U-251,17.3 µM (inactive)
same,GI50,UACC-257,12.9 µM (inactive)
same,GI50,UACC-62,15.8 µM (inactive)
same,GI50,UO-31,1.61 µM (inactive)
